Data set [1] can be described thus: Oral bioavailability and brain penetration in mice. The format is in vivo. Particulars: 30 μmol/kg p.o., ± SD. The protocol:
[…] Male mice (30-35g, OF1/ICstrain) were sacrificed at indicated time points after oral administration. Trunk-blood was collected in EDTA-containing tubes and the brain was removed and immediately frozen on dry ice. To 100 μl plasma 10 μl internal standard (1.0 pmol of a compound with solubility and ionization properties similar to test compounds) was added and extracted three times with 500 μl dichloromethane. The combined extracts were then dried under a stream of nitrogen and re-dissolved in 100 μl acetonitrile/water (70% acetonitrile). Brains were weighed and homogenized in water (1:5 w/v). Two 100 μl aliquots of each homogenate+10 μl of internal standard (same standard as used for the plasma samples) were extracted three times with 500 μl dichloromethane and further processed as the plasma samples. Samples were separated on Beckmann high-performance liquid chromatography equipment system with an autosampler (Gilson 233XL).
The limit of detection (LOD), defined as the lowest concentration of the extracted standard sample with a signal to noise ratio of ˜3.

The subject of data set [2] is parkinsonian primates. Particulars: data published in WO2009047296 and Gregoire et al 2011; cited from earlier work.
The test system of data set [3] is parkinsonian primates. Kind of data set: Movement disorder model: antidyskinetic effect in parkinsonian (MPTP) primates. The format is in vivo, cynomolgus monkeys (Macaca fascicularis). Conditions: for locomotor response / mean parkinsonian score: parkinsonian primates; for mean parkinsonian score: reduced from 9.4. The procedure:
Female ovariectomized cynomolgus monkeys (Macaca fascicularis) are used in the assessment. The animals can be rendered parkinsonian by continuous infusion of 1-methyl-4-phenyl-1,2,3,6-tetrahydropyridine (MPTP) until they develop a stable parkinsonian syndrome. After recuperation, animals are treated daily with levodopa until clear and reproducible dyskinesias are developed.
Monkeys are observed through a one-way screen window in their home cage. They are observed and scored repeatedly at baseline and after a standard s.c. dose of levodopa. Locomotor activity is assessed and followed with an electronic monitoring system. Antiparkinsonian responses are evaluated by measuring the locomotor activity and a Parkinson disability scale (see Hadj Tahar A et al, Clin Neuropharmacol 2000; 23:195-202; and Samadi P et al, Neuropharmacology 2003; 45:954-963). Dyskinesias are closely monitored and scored according to a dyskinesia rating scale (also described in Hadj Tahar A et al; and Samadi P et al) every 15 minutes until the end of the effect. The doses of levodopa are chosen to induce motor activation and reproducible dyskinesia but no excessive agitation.
Monkeys are observed for at least two hours following an oral administration of vehicle. On a subsequent day, the dose of levodopa selected is tested once. The animals are observed (with measures of parkinsonian and dyskinetic scores) for the entire duration of the levodopa effect and are also monitored for locomotor activity. This provides vehicle control values as well as levodopa antiparkinsonian and dyskinesia response data for comparison with combinations of a α7-nAChR agonist/positive allosteric modulator and levodopa. The monkeys are then tested with a α7-nAChR agonist/positive allosteric modulator in combination with a fixed dose of levodopa. A suspension for oral administration of the α7-nAChR agonist/positive allosteric modulator is administered before levodopa. After each dose, the animals are observed (with measures of parkinsonian and dyskinetic scores) for the entire duration of effect and monitored for locomotor activity or any change in behavior (e.g. circling, excitement, lethargy and sleepiness).
Using this protocol, compound A-1 at a dose of 20 mg/kg was tested. Results based on five monkeys (levodopa/benserazide doses: 22.5/50 mg; 65/50 mg; 30/50 mg; 35/50 mg; and 25/50 mg) are shown in FIGS. 1-4.
For experiments shown in FIGS. 5 and 6 parkinsonian primates were treated orally with 10 mg/kg MPEP, 20 mg/kg JN403 and a combination of MPEP (10 mg/kg) and JN403 (20 mg/kg). In said experiments, compound MPEP increased the locomotor response from 230 count over 4 h to 810.

The subject of a further data set is mice. Kind of data set: Social Recognition Test in mice. The format is in vivo, mouse. Conditions: oral, dose 3 mg/kg, familiar partner at 24 h vs time 0. The protocol:
Social interactions between two experimental animals are influenced by their degree of familiarity: the better they know each other, the less time they spend on mutual scrutiny at each meeting. […] Memory enhancing agents (i.e. oxiracetam) facilitate learning to the extent that the previously met (familiar) partner is still remembered after 24 h, whereas in vehicle treated control animals the memory usually fades after less than 1 hour (Thor and Holloway, 1982) or after 2-3 hours.
Baseline-test: Pairs consisting of one adult and one young mouse were assigned at random to the experimental and control groups. In each pair only the adult mouse was orally treated 1 hour before the trial with either vehicle or the test compound. The duration of active contacts of the adult mouse with the young mouse was manually recorded over a period of 3 min, including the following behavioural, approach-related items: sniffing, nosing, grooming, licking, pawing and playing, anogenital exploration and orientation toward the young mouse; orientation, thereby, was defined as tip of nose of the adult mouse less than approximately 1 cm distant from the young mouse's body. […]

The mark [4] stands for this setting: compound A-1 20 mg/kg oral with levodopa/benserazide, five monkeys.

For `C[C@H]1[C@H](Oc2ccc(-c3ccc4[nH]ccc4c3)nn2)C2CCN1CC2` [B-13, (2S,3R)-3-[6-(1H-indol-5-yl)-pyridazin-3-yloxy]-2-methyl-1-aza-bicyclo[2.2.2]octane], the Brain came to 1884 ± 291 pmol/g in data set [1] (0.25 hour); 2960 ± 706 pmol/g in data set [1] (0.5 hour); 2940 ± 335 pmol/g in data set [1] (1 hour); 1260 ± 172 pmol/g in data set [1] (2 hour); 379 ± 134 pmol/g in data set [1] (4 hour); 93 ± 30 pmol/g in data set [1] (8 hour). For the same molecule, in data set [1] (24 hour), the Brain amounted to 13 ± 4 pmol/g.
Regarding `Cc1cc(/C(=C/Nc2ccc(Cl)cc2)C(=O)Nc2ccc(Cl)cc2)on1` [E-1, (Z)—N-(4-Chloro-phenyl)-3-(4-chloro-phenylamino)-2-(3-methyl-isoxazol-5-yl)-acrylamide], the L-dopa induced dyskinesias result with parkinsonian primates [2] is “able to reduce L-dopa induced dyskinesias”.
As for `c1cc2cc(-c3cnc(O[C@H]4CCN5CCC[C@@H]4C5)nc3)ccc2[nH]1` [C-1, (4S,5R)-4-[5-(1H-indol-5-yl)-pyrimidin-2-yloxy]-1-aza-bicyclo[3.3.1]nonane], the Brain in data set [1] (0.25 hour) was 620 ± 221 pmol/g; in data set [1] (0.5 hour), 1405 ± 539 pmol/g; in data set [1] (1 hour), 1458 ± 189 pmol/g; in data set [1] (2 hour), 1478 ± 259 pmol/g; in data set [1] (4 hour) it was 842 ± 187 pmol/g; in data set [1] (8 hour), 362 ± 62 pmol/g.
As for `Cc1cccc(C#Cc2ccccc2)n1` [F-2, 2-Methyl-6-phenylethynyl-pyridine, reference compound], the locomotor response in the data set with parkinsonian primates [3] (oral 10 mg/kg MPEP, increased from 230) was determined as 810 count over 4 h. Moreover, the mean parkinsonian score in the data set with parkinsonian primates [3] (oral 10 mg/kg MPEP) is 8.2.
Regarding `C[C@H](OC(=O)N[C@@H]1CN2CCC1CC2)c1ccccc1F` [A-1, (S)-(1-aza-bicyclo[2.2.2]oct-3-yl)-carbamic acid (S)-1-(2-fluoro-phenyl)-ethyl ester], the Brain in data set [1] (0.5 hour) stood at 706.3 ± 153.4 pmol/g; in data set [1] (1 hour), 573.7 ± 109.3 pmol/g; in data set [1] (2 hour), 191.9 ± 34.9 pmol/g; in data set [1] (4 hour), 104.6 ± 39.6 pmol/g; in data set [1] (6 hour) it was 40.5 ± 12.1 pmol/g; in data set [1] (24 hour), 9.1 ± 2.7 pmol/g. The Plasma was 634.9 ± 261.3 pmol/mL in data set [1] (0.5 hour); 684.7 ± 339.6 pmol/mL in data set [1] (1 hour); 168.2 ± 91.3 pmol/mL in data set [1] (2 hour); 85.0 ± 54.3 pmol/mL in data set [1] (4 hour); 29.5 ± 13.8 pmol/mL in data set [1] (6 hour); 3.8 ± 0.6 pmol/mL in data set [1] (24 hour). For the same molecule, in the data set with mice, the “Reduction in time scrutinizing in % ± SEM at 24 h” value was determined as 52 ± 4%. Besides, the “antiparkinsonian activity of levodopa (antiparkinsonian score)” value with parkinsonian primates [3] (setting [4]) is listed as “does not lower the antiparkinsonian activity of levodopa”. Besides, the “onset of action of levodopa (Elapsed Time after Levodopa Administration)” value in the data set with parkinsonian primates [3] (setting [4]) is on record as “does not delay the onset of action of levodopa”. Moreover, the “Duration of Levodopa-Response” value in the data set with parkinsonian primates [3] (compound A-1 20 mg/kg oral with levodopa/benserazide, five monkeys, extended from 230 minutes) turned out to be 265 min. Moreover, in the data set with parkinsonian primates [3] (compound A-1 20 mg/kg oral with levodopa/benserazide, five monkeys, reduced from 2.8), the “Mean Dyskinesia Score (total period)” value amounted to 2.1. Further, in the data set with parkinsonian primates [3] (oral 20 mg/kg JN403, baseline 230 count over 4 h), the locomotor response result is given as “no effect”. In addition, the mean parkinsonian score with parkinsonian primates [3] (oral 20 mg/kg JN403) is listed as 9.0.

These data come from patent US20140228398A1, “COMBINATIONS OF ALPHA 7 NICOTINIC ACETYLCHOLINE RECEPTOR ACTIVATORS AND mGluR5 ANTAGONISTS FOR USE IN DOPAMINE INDUCED [sequence] IN PARKINSON'S DISEASE” (NOVARTIS AG, priority 2011, published 2014).
